Data: ChEMBL document CHEMBL1208736, “Synthesis of highly functionalized 2,4-diaminoquinazolines as anticancer and anti-HIV agents” (Bioorg Med Chem Lett, 2010)
Converted amounts (≈) assume the structure as drawn.

How the values were obtained:
SK-OV-3 = experiment: Cytotoxicity against human SKOV3 cells by MTT assay; type: functional, cell-based
HL-60 = experiment: Cytotoxicity against human HL60 cells by MTT assay; type: functional, cell-based
A-431 = experiment: Cytotoxicity against human A431 cells by MTT assay; type: functional, cell-based
HepG2 = experiment: Cytotoxicity against human HepG2 cells by MTT assay; type: functional, cell-based
A549 = experiment: Cytotoxicity against human A549 cells by MTT assay; type: functional, cell-based
[1] = Therapeutic index, ratio of CC50 for human C8166 cells to EC50 for HIV1 3B; type: cell-based; conditions: read-out: Ratio CC50/EC50
[2] = test system: Human immunodeficiency virus 1; experiment: Antiviral activity against HIV1 3B infected in human C8166 cells assessed as inhibition of viral replication; type: functional, organism-based; conditions: Human immunodeficiency virus 1, 3B
[3] = Cytotoxicity against human C8166 cells after 3 days by MTT assay; type: cell-based

## N#Cc1c(NCc2ccccc2)c(F)c2nc(N)nc(N)c2c1F
SK-OV-3
  IC50: 11 µg/mL (≈ 33.7 µM)
HL-60
  IC50: 14 µg/mL (≈ 42.9 µM)
A-431
  IC50: 12.9 µg/mL (≈ 39.5 µM)
HepG2
  IC50: 27.8 µg/mL (≈ 85.2 µM)
A549
  IC50: > 1000 µg/mL

## N#Cc1c(OCc2ccccc2)c(F)c2nc(N)nc(N)c2c1OCc1ccccc1
SK-OV-3
  IC50: 14 µg/mL (≈ 33.7 µM)
HL-60
  IC50: 62 µg/mL (≈ 149 µM)
A-431
  IC50: 68.3 µg/mL (≈ 164 µM)
HepG2
  IC50: 84 µg/mL (≈ 202 µM)
A549
  IC50: > 1000 µg/mL

## N#Cc1c(Cl)c(Cl)c2nc(N)nc(N)c2c1Cl
[1]
  selectivity ratio: 8
SK-OV-3
  IC50: 1.3 µg/mL (≈ 4.51 µM)
HL-60
  IC50: 19 µg/mL (≈ 65.9 µM)
[2]
  EC50: 1 µg/mL (≈ 3.47 µM)
A-431
  IC50: 3.3 µg/mL (≈ 11.4 µM)
[3]
  CC50 at 72 h: 14.3 µg/mL (≈ 49.6 µM)
HepG2
  IC50: 2.5 µg/mL (≈ 8.66 µM)
A549
  IC50: 29.7 µg/mL (≈ 103 µM)

## N#Cc1c(F)c(F)c2nc(N)nc(N)c2c1F
[1]
  selectivity ratio: 59.6
SK-OV-3
  IC50: 8 µg/mL (≈ 33.5 µM)
HL-60
  IC50: 51 µg/mL (≈ 213 µM)
[2]
  EC50: 0.6 µg/mL (≈ 2.51 µM)
A-431
  IC50: 105 µg/mL (≈ 439 µM)
[3]
  CC50 at 72 h: 36.4 µg/mL (≈ 152 µM)
HepG2
  IC50: 5 µg/mL (≈ 20.9 µM)
A549
  IC50: > 1000 µg/mL

## CCCCNc1c(C#N)c(NCCCC)c2c(N)nc(N)nc2c1F
SK-OV-3
  IC50: 1.6 µg/mL (≈ 4.63 µM)
HL-60
  IC50: 1.4 µg/mL (≈ 4.05 µM)
A-431
  IC50: 1 µg/mL (≈ 2.89 µM)
HepG2
  IC50: 2.6 µg/mL (≈ 7.53 µM)
A549
  IC50: > 1000 µg/mL

## CC(C)(C)Nc1c(C#N)c(F)c2c(N)nc(N)nc2c1F
SK-OV-3
  IC50: 2.4 µg/mL (≈ 8.21 µM)
HL-60
  IC50: 18 µg/mL (≈ 61.6 µM)
A-431
  IC50: 11.9 µg/mL (≈ 40.7 µM)
HepG2
  IC50: 16.2 µg/mL (≈ 55.4 µM)
A549
  IC50: > 1000 µg/mL

## N#Cc1c(F)c(Cl)c2nc(N)nc(N)c2c1F
[1]
  selectivity ratio: 7
SK-OV-3
  IC50: 0.14 µg/mL (≈ 0.548 µM)
HL-60
  IC50: 0.04 µg/mL (≈ 0.156 µM)
[2]
  EC50: 0.1 µg/mL (≈ 0.391 µM)
A-431
  IC50: 1.5 µg/mL (≈ 5.87 µM)
[3]
  CC50 at 72 h: 3.9 µg/mL (≈ 15.3 µM)
HepG2
  IC50: 4.8 µg/mL (≈ 18.8 µM)
A549
  IC50: 30.8 µg/mL (≈ 120 µM)

## CCN(CC)c1c(C#N)c(F)c2c(N)nc(N)nc2c1F
SK-OV-3
  IC50: 1 µg/mL (≈ 3.42 µM)
HL-60
  IC50: 6.4 µg/mL (≈ 21.9 µM)
A-431
  IC50: 16.4 µg/mL (≈ 56.1 µM)
HepG2
  IC50: 1.3 µg/mL (≈ 4.45 µM)
A549
  IC50: 26.5 µg/mL (≈ 90.7 µM)

## N#Cc1c(Oc2ccccc2)c(Cl)c2nc(N)nc(N)c2c1Oc1ccccc1
SK-OV-3
  IC50: 14 µg/mL (≈ 34.7 µM)
HL-60
  IC50: 88 µg/mL (≈ 218 µM)
A-431
  IC50: > 1000 µg/mL
HepG2
  IC50: > 1000 µg/mL
A549
  IC50: > 1000 µg/mL

## CCCCNc1c(C#N)c(NCCCC)c2c(N)nc(N)nc2c1Cl
SK-OV-3
  IC50: 0.6 µg/mL (≈ 1.66 µM)
HL-60
  IC50: 0.7 µg/mL (≈ 1.93 µM)
A-431
  IC50: 2.5 µg/mL (≈ 6.91 µM)
HepG2
  IC50: 1.3 µg/mL (≈ 3.59 µM)
A549
  IC50: 2 µg/mL (≈ 5.53 µM)

## N#Cc1c(Nc2ccccc2)c(Cl)c2nc(N)nc(N)c2c1F
[1]
  selectivity ratio: 13.5
SK-OV-3
  IC50: 3.7 µg/mL (≈ 11.3 µM)
HL-60
  IC50: 47 µg/mL (≈ 143 µM)
[2]
  EC50: 0.4 µg/mL (≈ 1.22 µM)
A-431
  IC50: 4.8 µg/mL (≈ 14.6 µM)
[3]
  CC50 at 72 h: 6.3 µg/mL (≈ 19.2 µM)
HepG2
  IC50: 5.9 µg/mL (≈ 17.9 µM)
A549
  IC50: > 1000 µg/mL

## N#Cc1c(NCc2ccccc2)c(Cl)c2nc(N)nc(N)c2c1NCc1ccccc1
SK-OV-3
  IC50: 3.7 µg/mL (≈ 8.61 µM)
HL-60
  IC50: 8.5 µg/mL (≈ 19.8 µM)
A-431
  IC50: 716 µg/mL (≈ 1670 µM)
HepG2
  IC50: 19.2 µg/mL (≈ 44.7 µM)
A549
  IC50: > 1000 µg/mL

## N#Cc1c(Sc2ccccc2)c(Cl)c2nc(N)nc(N)c2c1Sc1ccccc1
[1]
  selectivity ratio: 10.6
SK-OV-3
  IC50: 9.4 µg/mL (≈ 21.6 µM)
HL-60
  IC50: 26 µg/mL (≈ 59.6 µM)
[2]
  EC50: 3.2 µg/mL (≈ 7.34 µM)
A-431
  IC50: 32.4 µg/mL (≈ 74.3 µM)
[3]
  CC50 at 72 h: 46.8 µg/mL (≈ 107 µM)
HepG2
  IC50: 5 µg/mL (≈ 11.5 µM)
A549
  IC50: > 1000 µg/mL

## CCN(CC)c1c(C#N)c(F)c2c(N)nc(N)nc2c1Cl
SK-OV-3
  IC50: 0.4 µg/mL (≈ 1.3 µM)
HL-60
  IC50: 2.3 µg/mL (≈ 7.45 µM)
A-431
  IC50: 7.3 µg/mL (≈ 23.6 µM)
HepG2
  IC50: 2 µg/mL (≈ 6.48 µM)
A549
  IC50: 7.1 µg/mL (≈ 23 µM)

## COc1ccc(Nc2c(C#N)c(F)c3c(N)nc(N)nc3c2Cl)cc1
SK-OV-3
  IC50: 1.6 µg/mL (≈ 4.46 µM)
HL-60
  IC50: 2.2 µg/mL (≈ 6.13 µM)
A-431
  IC50: 5.1 µg/mL (≈ 14.2 µM)
HepG2
  IC50: 10.2 µg/mL (≈ 28.4 µM)
A549
  IC50: 103 µg/mL (≈ 287 µM)

## Cc1cn([C@H]2C[C@H](N=[N+]=[N-])[C@@H](CO)O2)c(=O)[nH]c1=O [ZIDOVUDINE]
[1]
  selectivity ratio: 286000
[2]
  EC50: 0.004 µg/mL (≈ 0.015 µM)

## CCCSc1c(C#N)c(SCCC)c2c(N)nc(N)nc2c1Cl
[1]
  selectivity ratio: 11.5
SK-OV-3
  IC50: 1.2 µg/mL (≈ 3.26 µM)
HL-60
  IC50: 7.7 µg/mL (≈ 20.9 µM)
[2]
  EC50: 13.3 µg/mL (≈ 36.1 µM)
A-431
  IC50: 535 µg/mL (≈ 1450 µM)
[3]
  CC50 at 72 h: > 200 µg/mL
HepG2
  IC50: > 1000 µg/mL
A549
  IC50: > 1000 µg/mL

## CC(C)(C)Nc1c(C#N)c(F)c2c(N)nc(N)nc2c1Cl
SK-OV-3
  IC50: 2.1 µg/mL (≈ 6.8 µM)
HL-60
  IC50: 5.2 µg/mL (≈ 16.8 µM)
A-431
  IC50: 6.5 µg/mL (≈ 21.1 µM)
HepG2
  IC50: 5.4 µg/mL (≈ 17.5 µM)
A549
  IC50: 313 µg/mL (≈ 1010 µM)

## N#Cc1c(N)c(Cl)c2nc(N)nc(N)c2c1Cl
SK-OV-3
  IC50: 0.8 µg/mL (≈ 2.97 µM)
HL-60
  IC50: 6.7 µg/mL (≈ 24.9 µM)
A-431
  IC50: 9.5 µg/mL (≈ 35.3 µM)
HepG2
  IC50: 3.7 µg/mL (≈ 13.7 µM)
A549
  IC50: 188 µg/mL (≈ 699 µM)

## N#Cc1c(NCc2ccccc2)c(Cl)c2nc(N)nc(N)c2c1F
SK-OV-3
  IC50: 0.8 µg/mL (≈ 2.33 µM)
HL-60
  IC50: 0.3 µg/mL (≈ 0.875 µM)
A-431
  IC50: 1.4 µg/mL (≈ 4.08 µM)
HepG2
  IC50: 1.4 µg/mL (≈ 4.08 µM)
A549
  IC50: 34.1 µg/mL (≈ 99.5 µM)

## N#Cc1c(NCc2ccccc2)c(F)c2nc(N)nc(N)c2c1NCc1ccccc1
SK-OV-3
  IC50: 2.5 µg/mL (≈ 6.05 µM)
HL-60
  IC50: 7.2 µg/mL (≈ 17.4 µM)
A-431
  IC50: 20.7 µg/mL (≈ 50.1 µM)
HepG2
  IC50: 13.4 µg/mL (≈ 32.4 µM)
A549
  IC50: 13.9 µg/mL (≈ 33.6 µM)

## N#Cc1c(Nc2ccccc2)c(F)c2nc(N)nc(N)c2c1F
[1]
  selectivity ratio: 16.3
SK-OV-3
  IC50: 6.5 µg/mL (≈ 20.8 µM)
HL-60
  IC50: 40 µg/mL (≈ 128 µM)
[2]
  EC50: 0.2 µg/mL (≈ 0.64 µM)
A-431
  IC50: 7 µg/mL (≈ 22.4 µM)
[3]
  CC50 at 72 h: 6.9 µg/mL (≈ 22.1 µM)
HepG2
  IC50: 1.4 µg/mL (≈ 4.48 µM)
A549
  IC50: > 1000 µg/mL

## N#Cc1c(Nc2ccc(Cl)cc2)c(F)c2nc(N)nc(N)c2c1F
SK-OV-3
  IC50: 4.8 µg/mL (≈ 13.8 µM)
HL-60
  IC50: 35 µg/mL (≈ 101 µM)
A-431
  IC50: 4.5 µg/mL (≈ 13 µM)
HepG2
  IC50: 1 µg/mL (≈ 2.88 µM)
A549
  IC50: 115 µg/mL (≈ 332 µM)
